Assay results: patent US12642771B2, “Compositions comprising PGI2-receptor agonists and processes for the preparation thereof” (Arena Pharmaceuticals, Inc., priority 2017, dated 2026)

Assays:
[1] = Example 7A: open-label single-dose pharmacokinetic study, modified-release tablet vs immediate-release capsule, fasted healthy subjects; type: in vivo, human
Method: A. An open-label, fixed sequence, non-randomized study in two cohorts of healthy male and non-pregnant, non-lactating female subjects was conducted. Two cohorts with twelve subjects in each were enrolled to ensure data in ten evaluable subjects per cohort.
Each subject in Cohort 1 received each of the following regimens, in the fasted state, in a sequential manner over four treatment periods: • Regimen A (0.03 mg immediate-release Compound 1): 1×0.03 mg Compound 1 immediate-release capsule. • Regimen B (0.06 mg modified-release Compound 1): 1×0.06 mg Compound 1 modified-release tablet as disclosed herein. • Regimen C (0.12 mg modified-release Compound 1): 2×0.06 mg Compound 1 modified-release tablets as disclosed herein. • Regimen D (0.18 mg modified-release Compound 1) 3×0.06 mg Compound 1 modified-release tablets as disclosed herein.
Subjects received each regimen in the morning of Day 1, following an overnight fast of a minimum of 8 hours. PK samples were taken from subjects at 72 hours post-dose. There was a minimum washout period of 7 days between each administration of investigational medicinal product (IMP) (i.e., selexipag film-coated tablet(s), Compound 1 immediate-release capsule(s), and/or Compound 1 modified-release tablet(s)).
Venous blood samples were withdrawn at regular time intervals. Plasma concentration data for Compound 1 and the selexipag parent and active metabolite were analyzed using appropriate non-compartmental techniques to obtain estimates of one or more of the following parameters:
One or more of the above pharmacokinetic parameters were determined at one or more of the following time points: pre-dose and (referring to hours after administration): 0.5, 1, 1.5, 2, 3, 4, 5, 6, 8, 10, 12, 16, 20, 24, 36, 48, and 72 hours.

[2] = Release (dissolution) profile of capsules, USP Apparatus 2 (paddle) at 50 rpm, 500 mL aqueous sodium phosphate 0.05 M, pH 6.8; type: physicochemical; details: for Release rate (percentage of Compound 1 released): Table 3b, capsule 0.04 mg Compound 1, Poloxamer 188:food grade GMS 50:50
Description: USP Apparatus 2 (Paddle Apparatus) is described, for example, in the United States Pharmacopeial Convention, Feb. 1, 2012, Chapter <711> (“Dissolution”), incorporated by reference herein in its entirety. See http://www.usp.org/sites/default/files/usp_pdf/EN/USPNF/revisions/m99470-gc_711.pdf. The assembly from Apparatus 1 is used, except that a paddle formed from a blade and a shaft is used as the stirring element. The shaft is positioned so that its axis is not more than 2 mm from the vertical axis of the vessel at any point and rotates smoothly without significant wobble that could affect the results. The vertical center line of the blade passes through the axis of the shaft so that the bottom of the blade is flush with the bottom of the shaft. A distance of 25±2 mm between the bottom of the blade and the inside bottom of the vessel is maintained during the test. The metallic or suitably inert, rigid blade and shaft comprise a single entity. A suitable two-part detachable design may be used provided the assembly remains firmly engaged during the test. The paddle blade and shaft may be coated with a suitable coating so as to make them inert. The dosage unit is allowed to sink to the bottom of the vessel before rotation of the blade is started. A small, loose piece of nonreactive material, such as not more than a few turns of wire helix, may be attached to dosage units that would otherwise float. Other validated sinker devices may be used.
Unless otherwise specified, the release profiles for capsules were measured using USP Apparatus 2 (paddle).
All release profiles disclosed in Tables 3c-3p were measured with USP Apparatus 2 (paddle) at 50 rpm in 500 mL of aqueous sodium phosphate at a concentration of 0.05 M (pH=6.8). The values in a given table relate to capsules obtained from the same batch. Values shown represent mean values over a number of dissolution tests (“n” in each table) in each case.

[3] = modified-release compared to immediate-release formulation
[4] = modified-release tablet (compared with immediate-release capsule)

O=C(O)COC[C@H]1CC[C@H](COC(=O)N(c2ccccc2)c2ccc(Cl)cc2)CC1 [Compound 1, 2-(((1r,4r)-4-(((4-chlorophenyl)(phenyl)carbamoyloxy)methyl)cyclohexyl)methoxy)acetic acid]
Relative bioavailability based on individual dose-adjusted Cmax ([1]; 0.06, 0.12 and 0.18 mg modified-release tablet vs immediate-release capsule): statistically significantly lower
Relative bioavailability based on individual dose-adjusted ratios of AUC(0-last) ([1]; 0.06 and 0.12 mg modified-release tablet vs immediate-release capsule): statistically significantly lower
Dose-adjusted peak plasma exposure (Cmax/D), geometric mean ratio [1, 3]: 28.7-41.2%
Dose-adjusted total plasma exposure (AUC/D), geometric mean ratio [1, 3]: 63.3-97.9%
Cmax [1, 4]: reduced the Cmax
Tmax [1, 4]: increased Tmax
total plasma concentrations [1, 4]: substantially maintaining similar total plasma concentrations
Plasma concentrations at 24 hours post-dose ([1]; modified-release tablet compared to immediate release-formulation): higher
Systemic exposure (Cmax and AUC), dose proportionality ([1]; oral modified-release tablet formulation): increased in a slightly higher than dose-proportional manner
change of release rate after storage ([2]; 0.04 mg Compound 1 in Gelucire 50/13, storage at 40° C. and 75% RH for two weeks (FIG. 5)): rapid increase in release rate
Release rate (percentage of Compound 1 released) ([2]; 1 wk storage (40° C.), 30 min): 11.1%
Release rate (percentage of Compound 1 released) ([2]; 1 wk storage (40° C.), 60 min): 22.6%
Release rate (percentage of Compound 1 released) ([2]; 1 wk storage (40° C.), 120 min): 40.1%
Release rate (percentage of Compound 1 released) ([2]; 1 wk storage (40° C.), 180 min): 59.7%
Release rate (percentage of Compound 1 released) ([2]; 1 wk storage (40° C.), 240 min): 71.8%
Release rate (percentage of Compound 1 released) ([2]; 1 wk storage (40° C.), 360 min): 88.4%
Release rate (percentage of Compound 1 released) ([2]; 1 wk storage (40° C.), 480 min): 92.2%
Release rate (percentage of Compound 1 released) ([2]; 1 wk storage (40° C.), 600 min): 96.7%
Release rate (percentage of Compound 1 released) ([2]; 1 wk storage (40° C.), 720 min): 95.3%
Release rate (percentage of Compound 1 released) ([2]; 1 wk storage (40° C.), 735 min): 96.1%
Release rate (percentage of Compound 1 released) ([2]; 2 wks storage (40° C.), 30 min): 10.8%
Release rate (percentage of Compound 1 released) ([2]; 2 wks storage (40° C.), 60 min): 18.3%
Release rate (percentage of Compound 1 released) ([2]; 2 wks storage (40° C.), 120 min): 36.8%
Release rate (percentage of Compound 1 released) ([2]; 2 wks storage (40° C.), 180 min): 52.9%
Release rate (percentage of Compound 1 released) ([2]; 2 wks storage (40° C.), 240 min): 67.4%
Release rate (percentage of Compound 1 released) ([2]; 2 wks storage (40° C.), 360 min): 83.3%
Release rate (percentage of Compound 1 released) ([2]; 2 wks storage (40° C.), 480 min): 90.3%
Release rate (percentage of Compound 1 released) ([2]; 2 wks storage (40° C.), 600 min): 93.8%
Release rate (percentage of Compound 1 released) ([2]; 2 wks storage (40° C.), 720 min): 93.7%
Release rate (percentage of Compound 1 released) ([2]; 2 wks storage (40° C.), 735 min): 94.3%
Release rate (percentage of Compound 1 released) ([2]; 4 wks storage (40° C.), 30 min): 7.3%
Release rate (percentage of Compound 1 released) ([2]; 4 wks storage (40° C.), 60 min): 17.7%
Release rate (percentage of Compound 1 released) ([2]; 4 wks storage (40° C.), 120 min): 37.4%
Release rate (percentage of Compound 1 released) ([2]; 4 wks storage (40° C.), 180 min): 54.6%
